{
  "source": "patent US20220008430A1",
  "about": "“METHODS OF TREATING SUBJECTS HAVING PLATELET DYSFUNCTION WITH IV MELOXICAM” (priority 2018, published 2022)",
  "key": {"platelet function [1]": {"system": "platelet function", "test": "PFA-100 closure time, ex vivo whole blood, CADP reagent cartridge", "type": "cell-based, human", "description": "(§1) The PFA-100 device determines closure time by simulating platelet adhesion and aggregation following vascular injury.\n(§2) Study subjects (n=13) had approximately 20 mL of whole blood collected in tubes containing 3.2% (0.105 M) buffered sodium citrate (1 part anticoagulant to 9 parts blood).\n(§3) Assessment of platelet function: Platelet function was evaluated using the PFA-100 Platelet Function Analyzer (Siemens Healthcare Diagnostics, Deerfield, Ill.). […] Use of this device to measure the effect of drugs on platelet adhesion is well documented. The PFA-100 device determines a sample closure time by simulating the platelet adhesion and aggregation that occurs following vascular injury. Analysis was performed using both collagen with epinephrine (CEPI) and collagen with adenosine diphosphate (CADP) reagent cartridges. […] Whole blood aliquots were treated according to the test condition and incubated for approximately 10 minutes prior to analysis in the PFA-100. All blood samples were analyzed within 2.5 hours of the time of collection. PFA-100 closure time results were reported for each test condition and reagent cartridge. […] Samples outside this range were excluded from the primary analysis.\n(§4) Statistical analysis: Treatment effect on CT was analyzed using an analysis of variance (ANOVA). […] Pairwise comparisons were performed; nominal P-values were reported without controlling for multiplicity. Subgroup analysis by gender was also performed. All analyses were performed separately for each reagent."}, "platelet function [2]": {"system": "platelet function", "test": "PFA-100 closure time, ex vivo whole blood, CEPI reagent cartridge", "type": "cell-based, human", "description": "as §1, §2, §3, §4"}, "[3]": {"conditions": "cited from earlier work"}, "pain [4]": {"system": "pain", "conditions": "intravenous; Prescribing Information; cited from earlier work"}, "platelet aggregation": {"system": "platelet aggregation", "conditions": "healthy volunteers; 0.4 mg/kg; previous studies; cited from earlier work"}, "COX-2 / COX-1": {"system": "COX-2 / COX-1", "conditions": "ratio of IC80 of COX-2 to IC80 of COX-1; Warner 1999; cited from earlier work"}, "pain [5]": {"system": "pain", "test": "Time course of analgesic effect", "type": "in vivo, human", "conditions": "meloxicam administration as disclosed (IV)"}, "[6]": {"conditions": "cited from earlier work", "remark": "listed apart in the source"}, "[7]": {"conditions": "all eligible subjects (12 subjects), 2.5 μg/mL"}, "[8]": {"conditions": "all eligible subjects (12 subjects), 5 μg/mL"}},
  "note": "Where two headings read alike, the source gives them in different places.",
  "data": [
    {"smiles": "O=C(c1ccccc1)c1ccc2n1CCC2C(=O)O", "note": "(stereo not drawn) [Ketorolac]", "values": [
      {"measurement": "LS mean closure time", "setting": "platelet function [1]; [7]", "result": 82.08, "unit": "s"},
      {"measurement": "LS mean closure time", "setting": "platelet function [1]; [8]", "result": 86.36, "unit": "s"},
      {"measurement": "difference in closure time vs untreated control", "setting": "platelet function [1]; all tested concentrations", "result": "no statistically significant differences"},
      {"measurement": "LS mean closure time", "setting": "platelet function [1]; final analysis set (8 subjects), 2.5 μg/mL in whole blood", "result": 79.41, "unit": "s"},
      {"measurement": "LS mean closure time", "setting": "platelet function [1]; final analysis set (8 subjects), 2.5 μg/mL in whole blood, listed as ketorolac", "result": "79.41 (5.31) seconds"},
      {"measurement": "LS mean closure time", "setting": "platelet function [1]; final analysis set (8 subjects), 5 μg/mL in whole blood", "result": 87.95, "unit": "s"},
      {"measurement": "LS mean closure time", "setting": "platelet function [1]; final analysis set (8 subjects), 5 μg/mL in whole blood, listed as ketorolac", "result": "87.95 (5.66) seconds"},
      {"measurement": "LS mean closure time", "setting": "platelet function [2]; [7]", "result": 193.17, "unit": "s"},
      {"measurement": "LS mean closure time", "setting": "platelet function [2]; [8]", "result": 191.58, "unit": "s"},
      {"measurement": "LS mean closure time", "setting": "platelet function [2]; final analysis set (8 subjects), 2.5 μg/mL", "result": 180.87, "unit": "s"},
      {"measurement": "LS mean closure time", "setting": "platelet function [2]; final analysis set (8 subjects), 5 μg/mL", "result": 143.38, "unit": "s"},
      {"measurement": "prolongation in closure time vs untreated control", "setting": "platelet function [2]; therapeutic (and for meloxicam IV supratherapeutic) concentrations", "result": "significant prolongations"},
      {"measurement": "peak concentration", "setting": "[3]; following 15-mg IV dose", "result": "~2.5", "unit": "µg/mL"},
      {"measurement": "peak concentration", "setting": "[3]; following 30-mg IV dose", "result": "~5", "unit": "µg/mL"},
      {"measurement": "time to onset of pain relief", "setting": "pain [4]", "result": "up to 30 minutes"},
      {"measurement": "bleeding time", "setting": "platelet aggregation", "result": "prolonged bleeding times"},
      {"measurement": "epinephrine-, adenosine-, and collagen-induced platelet aggregation", "setting": "platelet aggregation", "result": "significant inhibition"},
      {"measurement": "COX-2/COX-1 IC80 ratio", "setting": "COX-2 / COX-1", "result": 294}
    ]},
    {"smiles": "CC(=O)Oc1ccccc1C(=O)O", "note": "[Aspirin, acetylsalicylic acid]", "values": [
      {"measurement": "COX-2/COX-1 IC80 ratio", "setting": "COX-2 / COX-1", "result": 3.8}
    ]},
    {"smiles": "COc1ccc2cc([C@H](C)C(=O)O)ccc2c1", "note": "[Naproxen]", "values": [
      {"measurement": "COX-2/COX-1 IC80 ratio", "setting": "COX-2 / COX-1", "result": 3}
    ]},
    {"smiles": "Cc1cnc(NC(=O)C2=C(O)c3ccccc3S(=O)(=O)N2C)s1", "note": "[Meloxicam, 4-hydroxy-2-methyl-N-(5-methyl-2-thiazolyl)-2H-1,2-benzothiazine-3-carboxamide-1,1-dioxide]", "values": [
      {"measurement": "therapeutic window", "setting": "pain [5]", "result": "at least 24 hours"},
      {"measurement": "water solubility", "setting": "[6]", "result": "poor water solubility"}
    ]},
    {"smiles": "CS(=O)(=O)c1ccc(C2=C(c3ccccc3)C(=O)OC2)cc1", "note": "[Rofecoxib]", "values": [
      {"measurement": "COX-2/COX-1 IC80 ratio", "setting": "COX-2 / COX-1", "result": "<0.05"}
    ]},
    {"smiles": "CC(C)Cc1ccc(C(C)C(=O)O)cc1", "note": "(stereo not drawn) [Ibuprofen]", "values": [
      {"measurement": "COX-2/COX-1 IC80 ratio", "setting": "COX-2 / COX-1", "result": 2.6}
    ]}
  ]
}
